Experimental data reported in patent US12655139B2, “Isoxazolidines as RIPK1 inhibitors and use thereof” (SANOFI, priority 2020, dated 2026).
Structures can show the parent of a compound that is named as a salt.

These compounds were tested on U937 cells (assay: Cellular assay in U937 cells on cell death (necroptosis), TNFα/zVAD.fmk). Conditions: Homo sapiens, U-937, Comparator table 5; read-out: U937 IC50 (uM) Mean.
Type: cell-based
Text: Cellular Assay in U937 Cells to Measure the Activity of RIPK1-Inhibitors on Cell Death (Necroptosis).
Cell death was quantified in 96 well plates by determination of the amount of live cell using a CellTiter 96 AQueous reagent (Promega), a calorimetric method to measure the amount of live cells by reducing tetrazolium compound [3-(4,5-dimethylthiazol-2-yl)-5-(3-carboxymethoxyphenyl)-2-(4-sulfophenyl)-2H-tetrazolium, inner salt; MTS] into formazan. Absorbance of formazan was read at 490 nm. The inhibitory activity of the test compound was quantified in a concentration response curve (CRC) experiment. Compounds were obtained as 10 mM stock solutions and were diluted 1 to 10 volumes with DMSO to yield a 1 mM solution. From this solution 2 μl were diluted with 998 μl growth medium. 100 μl of 2 μM compound solution was further diluted sequentially with a dilution factor of 2.5 by adding 150 μl growth medium. A total of 10 concentrations were tested ranging from 10 μM to 0.26 nM or from 1 μM to 0.07 nM.
U937 cells were cultured in RPMI1640 Glutamax and 10% heat inactivated FBS. 50 μl cell suspension containing 1×10^6 cells/ml supplemented with 50 μM zVAD.fmk (Benzyloxycarbonyl-Val-Ala-Asp (OMe) fluoromethylketone) and 100 ng/ml recombinant human TNFα were dispensed in each well of a 96-well plate. 50 μl of compound dilutions (see above) were added and the cell suspension incubated overnight (18 to 24 hours) at 37° C., 5% CO2 in a humidified atmosphere (95% rH). High (no compound) and low control (no TNFα, zVAD.fmk) were tested with 7 replicates; all compound concentrations were tested in duplicates on each experimental plate.
CellTiter 96 Aqueous reagent was mixed (100 μl PMS (phenazine methosulfate) solution/2 ml MTS (3-(4,5-[…])-5-(3-carboxymethoxyphenyl)-2-(4-sulfophenyl)-2H-tetrazolium, inner salt) solution) and 20 μl were added per well. After 4 hours incubation at 37° C. (5% CO2 95% rH) optical density was measured at 490 nm on a microplate reader (Tecan Infinite M1000).
The % inhibition is expressed as percentage of the maximal inhibition value obtained in the absence of TNFα/zVAD.fmc.

| Compound | IC50 [µM] |
| --- | --- |
| NC(=O)c1ccnc(N2CCC(C(=O)N3OCC[C@H]3c3cc(F)cc(F)c3)CC2)n1 [E, reference compound] | 0.002 |
| CC(C)(C)OC(=O)N1CC[C@@H](C(=O)N2OCC[C@H]2c2cncc(F)c2)[C@@H](F)C1 [F, reference compound] | > 10 |

Same assay, conditions: Homo sapiens, U-937, Table 2; read-out: U937 IC50

| Compound | IC50 [µM] |
| --- | --- |
| Cn1ccc(C2CCON2C(=O)C2CCN(c3nccc(C(N)=O)n3)CC2)n1 (racemic) [Ex. 002*] | 1.83 |
| NC(=O)c1ccnc(N2CCC(C(=O)N3OCCC3c3ccc4nccn4c3)CC2)n1 (racemic) [Ex. 012*] | 7.26 |
| NC(=O)c1cncc(C2CCON2C(=O)C2CCN(c3nccc(C(N)=O)n3)CC2)c1 (racemic) [Ex. 029*] | 2.2 |
| CNC(=O)c1cncc(C2CCON2C(=O)C2CCN(c3nccc(C(N)=O)n3)CC2)c1 (racemic) [Ex. 040*] | > 10 |
| Cc1nnc(C2CCON2C(=O)C2CCN(c3nccc(C(N)=O)n3)CC2)s1 (racemic) [Ex. 089*] | 2.16 |
| Cn1ccc(C2CCON2C(=O)C2CCN(c3cc(C#N)ncn3)CC2)n1 (racemic) [Example 006, 6-[4-[3-(1-methylpyrazol-3-yl)isoxazolidine-2-carbonyl]-1-piperidyl]pyrimidine 4-carbonitrile] | 5.6 |
| Cn1ccc(C2CCON2C(=O)C2CCN(c3cc(C(N)=O)ncn3)CC2)n1 (racemic) [Example 008, 6-[4-[3-(1-methylpyrazol-3-yl)isoxazolidine-2-carbonyl]-1-piperidyl] pyrimidine-4-carboxamide TFA salt] | 5.22 |
| CNC(=O)c1cncc(C2CCON2C(=O)C2CCN(c3cc(C(N)=O)ncn3)CC2)c1 (racemic) [Example 041] | > 10 |
| NC(=O)c1ccnc(N2CCC(C(=O)N3OCC[C@H]3c3cncnc3)CC2)n1 [Ex. 003] | 0.29 |
| N#Cc1cncc([C@@H]2CCON2C(=O)C2CCN(c3cc(C#N)ncn3)CC2)c1 [Ex. 005] | 0.115 |
| N#Cc1cncc([C@@H]2CCON2C(=O)C2CCN(c3cc(C#N)ccn3)CC2)c1 [Ex. 017] | 0.343 |
| CC1(C(=O)N2OCC[C@H]2c2cncc(C#N)c2)CCN(c2ncc(F)c(OCC#N)n2)CC1 [Ex. 018] | 0.0103 |
| NC(=O)c1ccnc(N2CCC(C(=O)N3OCCC3c3ccc(O)nc3)CC2)n1 (centres unmarked) [Ex. 022] | > 10 |
| CCOC(=O)COc1nc(N2CCC(C(=O)N3OCC[C@H]3c3cncc(C#N)c3)CC2)ncc1F [Ex. 027, Ethyl 2-[2-[4-[(3S)-3-(5-cyano-3-pyridyl)isoxazolidine-2-carbonyl]-1-piperidyl]-5-fluoro-pyrimidin-4-yl]oxyacetate] | 0.528 |
| CC(=O)Nc1cncc([C@@H]2CCON2C(=O)C2CCN(c3nccc(C(N)=O)n3)CC2)c1 [Ex. 043] | 2.7 |
| NC(=O)c1ccnc(N2CCC(C(=O)N3OCC[C@H]3c3cncc(N4CCCC4=O)c3)CC2)n1 [Ex. 060] | 7.31 |
| CC1(C(=O)N2OCC[C@H]2c2cncnc2)CCN(c2ncc(F)c(OCC#N)n2)CC1 [Ex. 062] | 0.0124 |
| N#CCOc1nc(N2CCC(C(=O)N3OCC[C@H]3c3cncnc3)CC2)ncc1F [Ex. 063] | 0.0151 |
| NC(=O)c1ccnc(N2CCC(C(=O)N3OCC[C@H]3c3cnccn3)CC2)n1 [Ex. 074] | 0.00975 |
| CCN1CCC(CNC(=O)c2ccnc(N3CCC(C(=O)N4OCC[C@H]4c4cncc(C#N)c4)CC3)n2)CC1 [Ex. 079] | 1.67 |

| Compound | IC50 [µM] |
| --- | --- |
| Cc1cncc([C@@H]2CCON2C(=O)C2CCN(c3ncc(F)c(C(N)=O)n3)CC2)n1 [Ex. 082] | 0.00325 |
| NC(=O)c1nc(N2CCC(C(=O)N3OCC[C@H]3c3ccc(Cl)cn3)CC2)ncc1F [Ex. 084] | 0.0178 |
| N#Cc1cncc([C@@H]2CCON2C(=O)C2CCN(c3nccc(C(=O)NC4CNC4)n3)CC2)c1 [Ex. 086, N-(Azetidin-3-yl)-2-[4-[(3S)-3-(5-cyano-3-pyridyl)isoxazolidine-2-carbonyl]-1-piperidyl]pyrimidine-4-carboxamide TFA salt] | 8.68 |
| NC(=O)c1cncc([C@@H]2CCON2C(=O)C2CCN(c3ncc(F)c(C(N)=O)n3)CC2)c1 [Ex. 101] | 0.442 |
| N#Cc1cncc([C@@H]2CCON2C(=O)C2CCN(c3nccc(C(N)=O)n3)CC2)n1 [Ex. 118] | 0.00761 |
| N#Cc1cncc([C@@H]2CCON2C(=O)C2CCN(c3nccc(Br)n3)CC2)c1 [Ex. 161] | 0.02 |
| COc1cncc([C@@H]2CCON2C(=O)C2CCN(c3ncc(F)c(C(N)=O)n3)CC2)n1 [Ex. 177] | 0.00586 |
| N#Cc1nc([C@@H]2CCON2C(=O)C2CCN(c3nccc(C(N)=O)n3)CC2)cs1 [Ex. 188] | 0.204 |
| N#Cc1ccc([C@@H]2CCON2C(=O)C2CCN(c3ncc(F)c(C#N)n3)CC2)nc1 [compound 112, 2-[4-[(3S)-3-(5-cyano-2-pyridyl)isoxazolidine-2-carbonyl]-1-piperidyl]-5-fluoro-pyrimidine-4-carbonitrile] | 0.0755 |
| COc1nc(N2CCC(C(=O)N3OCC[C@H]3c3ccc(C#N)cn3)CC2)ncc1F [compound 117] | 0.0684 |
| N#Cc1cncc([C@@H]2CCON2C(=O)C2CCN(c3ncc(F)c(O)n3)CC2)c1 [compound 125, 5-[(3S)-2-[1-(5-fluoro-4-hydroxy-pyrimidin-2-yl)piperidine-4-carbonyl]isoxazolidin-3-yl]pyridine-3-carbonitrile] | 8.65 |
| Cc1ccc([C@@H]2CCON2C(=O)C2CCN(c3cc(C#N)ncn3)CC2)cn1 [compound 128, (S)-6-(4-(3-(6-methylpyridin-3-yl)isoxazolidine-2-carbonyl)piperidin-1-yl)pyrimidine-4-carbonitrile] | 0.224 |
| Cc1cncc([C@@H]2CCON2C(=O)C2CCN(c3nccc(C(N)=O)n3)CC2)c1 [compound 132, (S)-2-(4-(3-(5-methylpyridin-3-yl)isoxazolidine-2-carbonyl)piperidin-1-yl)pyrimidine-4-carboxamide] | 0.0319 |
| Cc1ccc([C@@H]2CCON2C(=O)C2CCN(c3cc(C(N)=O)ncn3)CC2)cn1 [compound 135, (S)-6-(4-(3-(6-methylpyridin-3-yl)isoxazolidine-2-carbonyl)piperidin-1-yl)pyrimidine-4-carboxamide] | 0.491 |
| Cc1ncc([C@@H]2CCON2C(=O)C2CCN(c3nccc(C#N)n3)CC2)cc1F [compound 136, (S)-2-(4-(3-(5-fluoro-6-methylpyridin-3-yl)isoxazolidine-2-carbonyl)piperidin-1-yl)pyrimidine-4-carbonitrile] | 0.0204 |
| N#Cc1cncc([C@@H]2CCON2C(=O)C2CCN(c3ccnc(N)n3)CC2)c1 [compound 148, 5-[(3S)-2-[1-(2-aminopyrimidin-4-yl)piperidine-4-carbonyl]isoxazolidin-3-yl]pyridine-3-carbonitrile] | 2.21 |
| O=C(C1CCN(c2ncnc(Cl)n2)CC1)N1OCC[C@H]1c1cnccn1 [compound 174, [1-(4-chloro-1,3,5-triazin-2-yl)-4-piperidyl]-[(3S)-3-pyrazin-2-ylisoxazolidin-2-yl]methanone] | 3.03 |
| COc1nc(Cl)nc(N2CCC(C(=O)N3OCC[C@H]3c3cnccn3)CC2)n1 [compound 181, [1-(4-chloro-6-methoxy-1,3,5-triazin-2-yl)-4-piperidyl]-[(3S)-3-pyrazin-2-ylisoxazolidin-2-yl]methanone] | 0.0301 |
| Cc1ccc([C@@H]2CCON2C(=O)C2CCN(c3ncc(F)c(C(N)=O)n3)CC2)s1 [compound 183, 5-fluoro-2-[4-[(3S)-3-(5-methyl-2-thienyl)isoxazolidine-2-carbonyl]-1-piperidyl]pyrimidine-4-carboxamide] | 0.000675 |
